In patent publication US9180217B2, “Sterilization system and device” (priority 2004, dated 2015):
“Also recorded” adds a separate entry of the source.

Tests used:
[1] = tested on: bacillus stearothemophilus spores; test: Spore studies in NO and NO2 (BI disks in TYVEK pouches, glass vessel); assay type: cell-based; details: Exp Time 10 min
Procedure: The experiments are conducted in glass vessels in which gases can be metered in exact amounts. The tests were conducted using biological indicators made of stainless steel disks inoculated with 10^6 bacillus stearothemophilus spores. The BI disks are heat-sealed in individual TYVEK sterilization pouches and placed in a glass vessel. The vessel is filled with various mixtures of gases following specific protocols for the order and timing of gas introduction.
In one protocol, the glass vessel is evacuated to 3″ Hg absolute. Either NO or NO2, as the sterilant gas, is added in an amount that corresponds to a 5% concentration (by volume) when the vessel is completely filled with sterilant gas and diluent gas. After 5 minutes, either air or nitrogen was added to the vessel until atmospheric pressure is reached. The BI is exposed to the air or nitrogen for 10 minutes. Thereafter, the BIs, in their pouches, are removed from the vessel and taken to a microbiological hood. The biological indicators are removed from the pouches and placed in tubes with sterile tryptic soy broth, incubated at from about 55 to about 60° C., and monitored for growth.

[2] = tested on: Staphylococcus epidermides; test: Pressure vessel NO sterilization of dipped stainless steel strips; assay type: cell-based, Staphylococcus epidermides (strain 21977); details: Five Minute Sterilization Cycle, NO gas at atmospheric pressure
Source text: (§1) A glass pressure vessel is connected to a scrubbed NO gas tank source. The pressure vessel is purged five times with Argon gas to eliminate atmospheric oxygen (preventing formation of NO2•) and an additional three purges of NO are used to ensure a pure NO atmosphere and consistent results of bactericidal activity. To test the sterilization method: Bacillus subtillis var niger 9372 is used (after obtaining >80% endospore formation; a standard for ethylene oxide and autoclave test sterilization), as well as organisms commonly found on the epidermis: Staphylococcus aureus (strain 21769) and Staphylococcus epidermides (strain 21977), and the enteric organisms: Klebsiella pneumoniae (strain 21991) and Serratia marcesens (strain 21140). This particular Serratia strain has been found in previous studies to be one of the most resistant bacteria to the bactericidal effects of NO in culture. See, Raulli R et al., Recent Res Devel Microbiol 6: 177-183, 2002, the entire contents of which is incorporated by reference herein.
(§2) The organisms are cultured overnight in brain heart infusion BHI. […]
(§3) The sealed vessel is carefully opened in a laminar flow hood after all the NO had been purged with Argon. […] The samples are observed (digitally photographed) 24 hrs later, placed back in the waterbath and are measured for absorbance 72 hrs later. […]

Staphylococcus aureus = test: as above; assay type: cell-based, Staphylococcus aureus (strain 21769); details: Five Minute Sterilization Cycle, NO gas at atmospheric pressure
Source text: as §1, §2, §3

Serratia marcesens [3] = test: as above; assay type: cell-based, Serratia marcesens (strain 21140); details: Five Minute Sterilization Cycle, NO gas at atmospheric pressure
Source text: as §1, §2, §3

[4] = tested on: sporulated B. subtilis var. niger; test: Sterilization of contaminated stainless steel strips with varying quantities of delivered NO; assay type: cell-based; details: 5%, 2.5% and 1% NO, five minutes, culture in LB 48 hours then plating
Source text: A blood storage container (Nexell, Irvine, Calif.; Lifecell PL732 plastic tissue culture flask) is used as the sterilization chamber. Strips of stainless steel are dipped in 10^6 CFU/ml sporulated B. subtilis var. niger (as determined by ABS595 standardization curves). The strips are allowed to air dry, placed in the sterilization chamber, and then the sterilization chamber is heat sealed. The sterilization chamber is evacuated using a syringe and controlling air flow with the sterilization chamber valves. A known quantity of air is added to the vessel using a graduated syringe.
An NO-generating donor compound is placed in a 7 cc gas generation chamber. The gas generation chamber is attached to the storage container through luer lock connectors. The liquid activator, 3.0N HCl is added to the gas generation chamber and the generated gas is allowed to flow into the sterilization chamber. After a brief generation period, the gas is sealed in the sterilization chamber using a compression valve.
Varying quantities of NO gas, namely 10%, 5%, 2.5% and 1% NO, are tested for their efficacy in the sterilization chamber. The quantity (%) of NO gas generated and added to the sterilization chamber is calculated from the number of moles of NO required to be generated to result in the desired percentage of NO. […]

cocktail of bacteria = test: Humidity effects on live bacteria, sealed and unsealed dry samples; assay type: cell-based; details: 15 min Sterilization cycle, 1 atmosphere
Source text: This Example tests several humidifying paradigms and the ability to sterilize through a gas sterilization seal pouch. A cocktail of bacteria is used, grown to about 10^8 CFU/ml and mixed in equal volume. Stainless steel strips are dipped, allowed to dry, and subject to one of three methods: A, B and C. Method A samples are wrapped in a moist Kimwipe. Method B samples are left dry. Method C samples are dried and sealed in a V. Mueller™ Dual Peel Seal Pouch, which is designed for gas and autoclave sterilizations. Samples from methods B and C are placed in the sterilization chamber with a moist Kimwipe. Placement in the chamber is done so as to insure maximal separation of the Kimwipe and the sample(s). The chamber is re-sealed carefully so as not to disturb the positioning of the samples relative to the Kimwipe. Each sample is exposed to a 15 minute sterilization cycle at 1 atmosphere, removed under sterile conditions, and the samples are placed in BHI media as described above. Experimental samples are exposed to NO gas while control samples are handled identically, except that the chamber is gassed with nitrogen. All controls reached greater than 10^6 total CFU/ml in 24 hrs as determined by ABS595 standardization curves.

[5] = tested on: bacterial cocktail containing B. subtilis, S. marcesens, and S. epidermides; test: Sterilization of medical materials (tubing, needle); assay type: cell-based; details: 15 min Sterilization Cycle
Procedure: In this Example, the sterilization of medically relevant materials, such as needles and plastic tubing, is tested. Teflon (⅛′ ID), polyethylene (1.77 mm ID), vinyl (0.5 mm ID) tubing and a 30 gauge disposable needle are dipped in a bacterial cocktail containing B. subtilis, S. marcesens, and S. epidermides at about 10^8 total CFU/ml The samples are placed in the sterilization chamber and sealed. In each case, the lumen (the inner open space or cavity within the tubing) of the tubing or the needle contained at least some visually confirmed inoculum. […] The controls for each material reached at least 10^6 total CFU/ml in 24 hrs as determined by ABS595 standardization curves.

Bacillus subtilis [6] = test: Portable system (blood storage container, diazeniumdiolate plus acidic buffer) sterilization of stainless steel strips; assay type: cell-based, B. subtilis (vegetative); details: Fifteen Minute Sterilization Cycle; stainless steel strip
Source text: (§4) Similar to Example 1, a portable system is devised using blood storage containers and other laboratory items. In this construct, a blood storage container (Nexell, Irvine, Calif.; Lifecell PL732 plastic tissue culture flask) serves as the sterilization chamber. It has multiple ports, is easily attached to tubing or other chambers, and is easily cut and heat sealed for insertion and removal of contaminated/sterilized samples. The heat seal is strong and holds well at pressure, even though 1 ATM of pressure is used experimentally. Two 60 ml syringes connected to each other and a line of tubing by a three-way stopcock are employed to mix acidic buffer in one syringe with NO-releasing diazeniumdiolate in the other syringe. The tubing is connected to the blood container/sterilization chamber.
(§5) The stopcock is turned so that the acidic buffer can be added to the syringe containing the diazeniumdiolate. The valve is immediately closed to the buffer syringe and opened to the sterilization chamber. The 300 cc sterilization chamber inflates in about 15 seconds. Experiments are performed as described above, except that the devised system is used instead of the pressure vessel.
(§6) The test organisms are cultured overnight in BHI. The cultures contained at least 10^8 CFU/ml (100-fold greater than FDA testing guidelines) based on standardized ABS595 curves for each organism. […]

Klebsiella pneumoniae = test: Pressure vessel NO sterilization of dipped stainless steel strips; assay type: cell-based, Klebsiella pneumoniae (strain 21991); details: Five Minute Sterilization Cycle, NO gas at atmospheric pressure
Source text: as §1, §2, §3

Bacillus subtilis [7] = test: as above; assay type: cell-based, Bacillus subtillis var niger 9372; details: Five Minute Sterilization Cycle, NO gas at atmospheric pressure
Source text: as §1, §2, §3

[8] = tested on: Bacillus subtilis (spore); test: Portable system (blood storage container, diazeniumdiolate plus acidic buffer) sterilization of stainless steel strips; assay type: cell-based, B. subtilis (endosporulated); details: Fifteen Minute Sterilization Cycle; stainless steel strip
Source text: as §4, §5, §6

Serratia marcesens [9] = test: as above; assay type: cell-based, S. marcesens; details: Fifteen Minute Sterilization Cycle; stainless steel strip
Source text: as §4, §5, §6

[10] = tested on: Bacillus stearothemophilus spores (ATCC 7953); test: Spore studies in lumens (wire biological indicators, resistometer); assay type: cell-based; details: 5 min, 23° C., NO then air
Procedure: The ability of the nitrogen oxide gases to penetrate an inner open space or cavity within a tube (i.e., a lumen) and inactivate spores in the lumen is evaluated. The spores used are those that are most resistant to the nitrogen oxide gases.
The following configuration of lumens are tested:
(a) 17″ stainless (SS) tubes having a 2.5 mm inner diameter (I.D.), bent in “U” shape
(b) 60″ polyethylene (PE) tube having a 4.5 mm ID, coiled and in Tyvek pouch
(c) 60″ PE tube having a 4.5 mm ID and a 1.5 mm outer diameter (O.D.) PEEK tube inside, coiled and in Tyvek pouch
Wire biological indicators are inoculated with 10^6 Bacillus stearothemophilus spores (ATCC 7953), (Raven Lot 3W67583) and placed at the center point of the tube in each of these configurations. The coiled polyethylene tubes were then heat-sealed in a TYVEK sterilization pouch.
Separately, each of the lumen samples are tested. The stainless steel tube (triplicate samples: SS-1, SS-2, and SS-3), the polyethylene tube, and the polyethylene tube with the PEEK catheter were each placed in a resistometer and exposed to the following gas cycle for 5 minutes at 23° C. This gas cycle is defined as follows: […]
The sterilization chamber/resistometer is evacuated and held at vacuum for 2 minutes. NO gas is then added to the sterilization chamber until the vacuum is decreased by 1″Hg. This condition is maintained for 2 minutes. Are is then added until the chamber reaches atmospheric pressure and the condition is held for 5 minutes.

[11] = tested on: spores (Biological Indicator manufactured by Raven); test: Humidity effects on spores (Raven Biological Indicator in Tyvek sachets, 300 ml glass vessels); assay type: cell-based; details: 5% nitrogen oxide, Diluent Air
Procedure: This Example illustrates the effects of humidity on the sterilization of spores using both NO and NO2/N2O4 as sterilizing gases. Tests are conducted in 300 ml glass vessels.
The vessels are allowed to stand for 30 minutes, Two Tyvek sachets, each containing a Biological Indicator manufactured by Raven (product number 3367771 3-6100ST) are placed in each vessel. The vessels are purged as follows: The vessel is evacuated to 8″Hg absolute. The Vessel is re-filled with air to atmospheric pressure. Evacuation/filling is repeated two more times. The vessel is evacuated to 8″Hg absolute. Sterilizing gases are introduced into the vessel. Compressed air (9% Relative Humidity) is added until the vessel reaches atmospheric pressure. The sachets are allowed to remain in the sterilizing environments for either five or ten 10 minutes before being removed and the BI is cultured in 4 milliliters of Tryptic Soy Broth for 14 days at 55-60° C.

[12] = tested on: Staphylococcus epidermides; test: Portable system (blood storage container, diazeniumdiolate plus acidic buffer) sterilization of stainless steel strips; assay type: cell-based, S. epidermides; details: Fifteen Minute Sterilization Cycle; stainless steel strip
Source text: as §4, §5, §6

[O]N=O [NO2, nitrogen dioxide]
spore condition (Dead/Live) ([1]; 5% in Air with Humidity Chip): Dead | spore condition (Dead/Live) ([1]; 5% in N2 with Humidity Chip): Dead

[N]=O [NO, nitric oxide]
trials showing no bacterial growth (Killed) [2]: 3/3 Killed | trials showing no bacterial growth (Killed) (Staphylococcus aureus): 3/3 Killed | trials showing no bacterial growth (Killed) (Serratia marcesens [3]): 3/3 Killed | killing 10^6 CFU/ml sporulated B. subtilis var. niger [4]: effective at killing | trials Killed (cocktail of bacteria; Method A, sample wrapped in Moist Kimwipe): Killed | trials Killed (cocktail of bacteria; Method B, Dry sample): sterilized dry samples; also recorded: Killed | trials Killed (cocktail of bacteria; Method C, Dry, Sealed in Dual Peel Seal Pouch): Killed | trials Killed ([5]; Disposable Needle 30 gauge): 2/2 Killed | trials Killed ([5]; Polyethylene Tubing 1.77 mm ID): 2/2 Killed | trials Killed ([5]; Teflon Tubing 1/8′ ID): 2/2 Killed | trials Killed ([5]; Vinyl Tubing 0.5 mm ID): 2/2 Killed | trials Killed (Bacillus subtilis [6]): 2/2 | trials showing no bacterial growth (Killed) (Klebsiella pneumoniae): 3/3 Killed | trials showing no bacterial growth (Killed) (Bacillus subtilis [7]): 3/3 Killed | trials Killed [8]: 2/2 | trials Killed (Serratia marcesens [9]): 3/3 Killed | spore condition (Dead/Live) after 14 days of incubation ([10]; (a) SS-1, 17″ stainless tube 2.5 mm I.D.): Dead | spore condition (Dead/Live) after 14 days of incubation ([10]; (a) SS-2, 17″ stainless tube 2.5 mm I.D.): Dead | spore condition (Dead/Live) after 14 days of incubation ([10]; (a) SS-3, 17″ stainless tube 2.5 mm I.D.): Dead | spore condition (Dead/Live) after 14 days of incubation ([10]; (b) PE Sheath, 60″ polyethylene tube 4.5 mm ID in Tyvek pouch): Dead | spore condition (Dead/Live) after 14 days of incubation ([10]; (c) PE Sheath with Catheter (PEEK tube inside) in Tyvek pouch): Dead | spore condition (Dead/Live) ([1]; 5% in Air with Humidity Chip): Dead | Spore Condition in 14 Days ([11]; Exposure 5 Minutes, Dry): Alive | Spore Condition in 14 Days ([11]; Exposure 5 Minutes, Humid): Dead | Spore Condition in 14 Days ([11]; Exposure 10 Minutes, Dry): Alive | Spore Condition in 14 Days ([11]; Exposure 10 Minutes, Humid): Dead | trials Killed [12]: 3/3 Killed
